In data set [1] the test system is p53 responsive β-lactamase reporter in HCT116 cells. Nature of the data set: p53 beta-lactamase reporter gene cellular functional assay. The format is cell-based. The settings on record: p53 reporter assay, HCT116, read-out: Cellular (µM), cellular activity (EC50). The method, then:
HCT116 cells were stably transfected with a p53 responsive β-lactamase reporter and were seeded into a 384-well plate at a density of 8000 cells per well. Cells were maintained in McCoy’s 5A Medium with 10% fetal bovine serum (FBS), Blasticidin, and Penicillin/Streptomycin. The cells were incubated overnight, followed by removal of cell growth media and replacement with Opti-MEM either containing 0% FBS or 10% FBS. […] The final working concentration of DMSO was 0.5%. β-lactamase activity was detected using the ToxBLAzer Dual Screen (Invitrogen), as per the manufacturer’s instructions. Measurements were made using the Envision multiplate reader (Perkin–Elmer).
On the technique in general: In a reporter assay the amount or activity of a reporter protein is the signal.

Data set [2] is described as follows: Circular dichroism (CD) α-helicity. It is filed as physicochemical. The settings on record: Table 2; CD of free peptide, 25 °C, 1 mM Hepes pH 7.4, 5% methanol. As for the experimental part: A total of 5 µL of the 10 mM stock peptide was mixed with 45 µL of 100% methanol, and dried for 2 h in the SpeedVac concentrator (Thermo Scientific). The dried peptide was reconstituted in a buffer (1 mM Hepes pH 7.4 and 5% methanol) to a concentration of 1 mM. The peptide sample was placed in a quartz cuvette with a path length of 0.2 cm. The peptide concentration was determined by the absorbance of the peptide at […]. The CD spectrum was recorded from 300 to 190 nm using the Chirascan-plus qCD machine (Applied Photophysics, Surrey, UK), at 25 °C. All experiments were done in duplicates. The CD spectrum was converted to mean residue ellipticity, before deconvolution and estimation of the secondary structure components of the peptide using the CDNN software (distributed by Applied Photophysics).
For orientation: Circular dichroism is widely used to follow secondary structure.

In a further data set the target is T1, human Mdm2 1–125 (Homo sapiens, UniProt Q00987).
T1 construct: GST (N); His6 (internal); TEV cleavage site ENLYFQG (internal); made in house; host or cells: Escherichia coli BL21 (DE3) Rosetta T1R
Nature of the data set: Mdm2 binding assay (competitive fluorescence anisotropy/polarization). The settings on record: Table 1; competitive fluorescence polarization; read-out: Mdm2 (nM), Mdm2 binding (Kd). The method, then:
The TEV (tobacco etch virus) cleavage site was changed from ENLYFQS to ENLYFQG to give a fusion protein with the following sequence:
Titrations were carried out with the concentration of Mdm2 held constant at 250 nM and the labeled peptide at 50 nM. The competing molecules were then titrated against the complex of the FAM-labeled peptide and protein. Apparent Kd values were determined by fitting the experimental data to the equations shown below:(2) r=r0+(rb−r0)×2(d^2−3e)cos(θ/3)−9/3Kd1+2(d^2−3e)cos(θ/3)−dd=Kd1+Kd2+[L]st+[L]t−[P]te=([L]t−[P]t)Kd1+([L]st−[P]t)Kd2+Kd1Kd2f=−Kd1Kd2[P]tθ=arcos[−2d^3+9de−27f/2(d^2−3e)^3] where [L]st and [L]t denote labeled ligand and total unlabeled ligand input concentrations, respectively. Kd2 is the dissociation constant of the interaction between the unlabeled ligand and the protein. In all competition experiments, it was assumed that [P]t > [L]st, otherwise considerable amounts of free labeled ligand would always be present and would interfere with measurements. Kd1 is the apparent Kd for the labeled peptide used and was experimentally determined as described in the previous paragraph. The FAM-labeled peptide was dissolved in dimethyl sulfoxide (DMSO) at 1 mM and diluted into the experimental buffer. Readings were carried out with an Envision Multilabel Reader (PerkinElmer). Experiments were carried out in PBS (2.7 mM KCl, 137mM NaCl, 10 mM Na2HPO4, and 2 mM KH2PO4 (pH 7.4)) and 0.1% Tween 20 buffer. All titrations were carried out in triplicate. Curve-fitting was carried out using Prism 4.0 (GraphPad). […] Negative control titrations of the ligands under investigation were also carried out with the fluorescently labeled peptide (in the absence of Mdm2) to ensure no interactions were occurring between the ligands and the FAM-labeled peptide.

Where two headings read alike, the source gives them in different places. Bridge positions count the residues as written; N and C are the ends. Square brackets hold non-standard residues; d marks the D form. Peptide text beside a SMILES is read from it. Lys(N3) = [N-]=[N+]=NCCCC[C@H](N)C(=O)O; R8 = C=CCCCCCC[C@@](C)(N)C(=O)O; Cba = N[C@@H](CC1CCC1)C(=O)O; S5 = C=CCCC[C@](C)(N)C(=O)O; Aib = CC(C)(N)C(=O)O; βAla = NCCC(=O)O

Usually EC50 stands for the concentration needed to bring the measured effect to its halfway point. A word on the Kd: it is a measure of binding affinity in units of concentration.

T1 sequence (Q00987 with tags, fused parts or gaps): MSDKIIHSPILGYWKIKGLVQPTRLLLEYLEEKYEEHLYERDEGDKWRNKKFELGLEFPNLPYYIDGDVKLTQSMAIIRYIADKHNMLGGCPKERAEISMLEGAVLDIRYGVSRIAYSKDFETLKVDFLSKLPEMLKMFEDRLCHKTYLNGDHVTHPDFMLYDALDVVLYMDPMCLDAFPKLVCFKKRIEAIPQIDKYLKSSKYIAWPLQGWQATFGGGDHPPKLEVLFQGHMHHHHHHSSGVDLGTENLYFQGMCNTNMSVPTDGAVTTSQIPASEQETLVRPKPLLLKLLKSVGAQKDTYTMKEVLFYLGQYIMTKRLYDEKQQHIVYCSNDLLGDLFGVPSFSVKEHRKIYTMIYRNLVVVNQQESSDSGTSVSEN

As to `CC(=O)N[C@@H](CCCCN=[N+]=[N-])C(=O)NCCC(=O)N[C@@H](CC(C)C)C(=O)N[C@H](C(=O)N[C@@H](Cc1ccccc1)C(=O)N[C@]1(C)CCCCCCC=CCCC[C@@](C)(C(=O)N[C@@H](C)C(=O)NC(C)(C)C(=O)N[C@@H](C)C(N)=O)NC(=O)[C@H](CC2CCC2)NC(=O)[C@H](CCC(N)=O)NC(=O)[C@H](C)NC(=O)[C@H](Cc2c[nH]c3ccccc23)NC(=O)[C@H](Cc2ccc(O)cc2)NC(=O)[C@H](CCC(=O)O)NC1=O)[C@@H](C)O` [A13(Aib)] (Ac-[Lys(N3)][βAla]LTF[R8]EYWAQ[Cba][S5]A[Aib]A-NH2; staple 6-13), the concentration giving a half-maximal response (EC50) in data set [1] (Table 2) came to 0.59 µM. The “Helicity (%)” value in data set [2] turned out to be 34.4%.
The like results for `CC(=O)N[C@@H](CCCCN=[N+]=[N-])C(=O)NCCC(=O)N(C)[C@@H](C)C(=O)N[C@H](C(=O)N[C@@H](Cc1ccccc1)C(=O)N[C@]1(C)CCCCCCC=CCCC[C@@](C)(C(=O)N[C@@H](CO)C(=O)N[C@@H](C)C(=O)N[C@@H](C)C(N)=O)NC(=O)[C@H](CC2CCC2)NC(=O)[C@H](CCC(N)=O)NC(=O)[C@H](C)NC(=O)[C@H](Cc2c[nH]c3ccccc23)NC(=O)[C@H](Cc2ccc(O)cc2)NC(=O)[C@H](CCC(=O)O)NC1=O)[C@@H](C)O` [L1(N-methyl L-Ala)] were, in that order, 1.49 µM and 47.2%.
Regarding `CC(=O)N[C@@H](CCCCN=[N+]=[N-])C(=O)NCCC(=O)N[C@@H](CC(C)C)C(=O)N[C@H](C(=O)N[C@@H](Cc1ccccc1)C(=O)N[C@]1(C)CCCCCCC=CCCC[C@@](C)(C(=O)NC(C)(C)C(=O)N[C@@H](C)C(=O)N[C@@H](C)C(N)=O)NC(=O)[C@H](CC2CCC2)NC(=O)[C@H](CCC(N)=O)NC(=O)[C@H](C)NC(=O)[C@H](Cc2c[nH]c3ccccc23)NC(=O)[C@H](Cc2ccc(O)cc2)NC(=O)[C@H](CCC(=O)O)NC1=O)[C@@H](C)O` [S12(Aib)], in data set [1] (Table 2), the EC50 turned out to be 0.25 µM. Besides, in data set [2], the “Helicity (%)” value is recorded as 37.3%.
The like results for `CC(=O)N[C@@H](CCCCN=[N+]=[N-])C(=O)NCCC(=O)N[C@@H](CC(C)C)C(=O)N[C@H](C(=O)N[C@@H](Cc1ccccc1)C(=O)N[C@]1(C)CCCCCCC=CCCC[C@@](C)(C(=O)N[C@@H](CO)C(=O)N[C@@H](C)C(=O)N[C@@H](C)C(N)=O)NC(=O)[C@H](CC2CCC2)NC(=O)[C@H](CCC(N)=O)NC(=O)C(C)(C)NC(=O)[C@H](Cc2c[nH]c3ccccc23)NC(=O)[C@H](Cc2ccc(O)cc2)NC(=O)[C@H](CCC(=O)O)NC1=O)[C@@H](C)O` [A8(Aib)] were, in that order, 1.5 µM and 37.5%.
The like results for `CC(=O)N[C@@H](CCCCN=[N+]=[N-])C(=O)NCCC(=O)NC(C)(C)C(=O)N[C@H](C(=O)N[C@@H](Cc1ccccc1)C(=O)N[C@]1(C)CCCCCCC=CCCC[C@@](C)(C(=O)N[C@@H](CO)C(=O)N[C@@H](C)C(=O)N[C@@H](C)C(N)=O)NC(=O)[C@H](CC2CCC2)NC(=O)[C@H](CCC(N)=O)NC(=O)[C@H](C)NC(=O)[C@H](Cc2c[nH]c3ccccc23)NC(=O)[C@H](Cc2ccc(O)cc2)NC(=O)[C@H](CCC(=O)O)NC1=O)[C@@H](C)O` [L1(Aib)] were, in that order, 0.49 µM and 42.7%.
In the case of `CC(=O)N[C@@H](CCCCN=[N+]=[N-])C(=O)NCCC(=O)N(C)[C@@H](CC(C)C)C(=O)N[C@H](C(=O)N[C@@H](Cc1ccccc1)C(=O)N[C@]1(C)CCCCCCC=CCCC[C@@](C)(C(=O)N[C@@H](CO)C(=O)N[C@@H](C)C(=O)N[C@@H](C)C(N)=O)NC(=O)[C@H](CC2CCC2)NC(=O)[C@H](CCC(N)=O)NC(=O)[C@H](C)NC(=O)[C@H](Cc2c[nH]c3ccccc23)NC(=O)[C@H](Cc2ccc(O)cc2)NC(=O)[C@H](CCC(=O)O)NC1=O)[C@@H](C)O` [L1(N-methyl L-Leu)], the EC50 in data set [1] (Table 2) amounted to 0.46 µM. In addition, the “Helicity (%)” value in data set [2] is on record as 32.6%.
In the case of `CC(=O)N[C@@H](CCCCN=[N+]=[N-])C(=O)NCCC(=O)N[C@@H](CC(C)C)C(=O)N(C)[C@H](C(=O)N[C@@H](Cc1ccccc1)C(=O)N[C@]1(C)CCCCCCC=CCCC[C@@](C)(C(=O)N[C@@H](CO)C(=O)N[C@@H](C)C(=O)N[C@@H](C)C(N)=O)NC(=O)[C@H](CC2CCC2)NC(=O)[C@H](CCC(N)=O)NC(=O)[C@H](C)NC(=O)[C@H](Cc2c[nH]c3ccccc23)NC(=O)[C@H](Cc2ccc(O)cc2)NC(=O)[C@H](CCC(=O)O)NC1=O)[C@@H](C)O` [T2(N-methyl L-Thr)], the concentration for a half-maximal effect (EC50) in data set [1] (Table 2) was 7.7 µM. Further, the “Helicity (%)” value in data set [2] came out at 38.2%.
The like results for `CC(=O)N[C@@H](CCCCN=[N+]=[N-])C(=O)NCCC(=O)N[C@@H](CC(C)C)C(=O)N[C@H](C(=O)N[C@@H](Cc1ccccc1)C(=O)N[C@]1(C)CCCCCCC=CCCC[C@@](C)(C(=O)N[C@@H](CO)C(=O)N[C@@H](C)C(=O)N(C)[C@@H](C)C(N)=O)NC(=O)[C@H](CC2CCC2)NC(=O)[C@H](CCC(N)=O)NC(=O)[C@H](C)NC(=O)[C@H](Cc2c[nH]c3ccccc23)NC(=O)[C@H](Cc2ccc(O)cc2)NC(=O)[C@H](CCC(=O)O)NC1=O)[C@@H](C)O` [A14(N-methyl L-Ala)] were, in that order, 0.71 µM and 47.5%.
On to `CC(=O)N[C@@H](CCCCN=[N+]=[N-])C(=O)NCCC(=O)N[C@@H](CC(C)C)C(=O)NC(C)(C)C(=O)N[C@@H](Cc1ccccc1)C(=O)N[C@]1(C)CCCCCCC=CCCC[C@@](C)(C(=O)N[C@@H](CO)C(=O)N[C@@H](C)C(=O)N[C@@H](C)C(N)=O)NC(=O)[C@H](CC2CCC2)NC(=O)[C@H](CCC(N)=O)NC(=O)[C@H](C)NC(=O)[C@H](Cc2c[nH]c3ccccc23)NC(=O)[C@H](Cc2ccc(O)cc2)NC(=O)[C@H](CCC(=O)O)NC1=O` [T2(Aib)], for which the concentration giving a half-maximal response (EC50) in data set [1] (Table 2) worked out at 2.9 µM. For the same molecule, in data set [2], the “Helicity (%)” value stood at 38.3%.
Take `CC(=O)N[C@@H](CCCCN=[N+]=[N-])C(=O)NCCC(=O)N[C@@H](CC(C)C)C(=O)N[C@H](C(=O)N[C@@H](Cc1ccccc1)C(=O)N[C@]1(C)CCCCCCC=CCCC[C@@](C)(C(=O)N[C@@H](CO)C(=O)N[C@@H](C)C(=O)N[C@@H](C)C(N)=O)NC(=O)[C@H](CC2CCC2)NC(=O)C(C)(C)NC(=O)[C@H](C)NC(=O)[C@H](Cc2c[nH]c3ccccc23)NC(=O)[C@H](Cc2ccc(O)cc2)NC(=O)[C@H](CCC(=O)O)NC1=O)[C@@H](C)O` [Q9(Aib)]: the EC50 in data set [1] (Table 2) came out at 0.25 µM. Also, the “Helicity (%)” value in data set [2] is given as 28%.
On to `CC(=O)N[C@@H](CC(C)C)C(=O)N[C@H](C(=O)N[C@@H](Cc1ccccc1)C(=O)N[C@]1(C)CCCCCCC=CCCC[C@@](C)(C(=O)N[C@@H](CO)C(=O)N[C@@H](C)C(=O)N[C@@H](C)C(N)=O)NC(=O)[C@H](CC2CCC2)NC(=O)[C@H](CC(C)C)NC(=O)[C@H](CCC(N)=O)NC(=O)[C@H](C)NC(=O)[C@H](Cc2ccc(O)cc2)NC(=O)[C@H](CCC(=O)O)NC1=O)[C@@H](C)O` [Peptide W7A] (Ac-LTF[R8]EYAQL[Cba][S5]SAA-NH2; staple 4-11), for which the Kd on human Mdm2 1–125 came to 5090 nM. Moreover, the EC50 in data set [1] (Table 1) is 8.8 µM.
`CC(=O)N[C@@H](CC(C)C)C(=O)N[C@H](C(=O)N[C@@H](Cc1ccccc1)C(=O)N[C@]1(C)CCCCCCC=CCCC[C@@](C)(C(=O)N[C@@H](CO)C(=O)N[C@@H](C)C(=O)N[C@@H](C)C(N)=O)NC(=O)[C@@H](CC2CCC2)NC(=O)[C@H](CC(C)C)NC(=O)[C@H](CCC(N)=O)NC(=O)[C@H](Cc2c[nH]c3ccccc23)NC(=O)[C@H](Cc2ccc(O)cc2)NC(=O)[C@H](CCC(=O)O)NC1=O)[C@@H](C)O` [Cba10(D-Cba)]: the Kd on human Mdm2 1–125 was determined as 1650 nM. Moreover, the 50% effective concentration (EC50) in data set [1] (Table 1) was found to be 8.1 µM.

Values taken from article PMC6632053, “Incorporation of Putative Helix-Breaking Amino Acids in the Design of Novel Stapled Peptides: Exploring Biophysical and Cellular Permeability Properties” (Molecules, 2019).
